Patent US11286258B2, “Nature-inspired anticancer and antibacterial motifs and pharmaceutical composition thereof” (University of Sharjah, priority 2020, dated 2022)
Values after ≈ are worked out from the molar mass of the structure shown. Where two headings read alike, the source gives them in different places. Marks after values point to notes of the source that are not given here.

Experiments:
E. coli ATCC25922 = assay: MIC broth microdilution, E. coli ATCC25922; format: cell-based, Escherichia coli; settings: not MDR, overnight incubation; for MIC: Escherichia coli, ATCC25922
Procedure: (§1) Antibacterial activity: The compounds were tested for the minimum inhibitory concentrations (MIC), which is the lowest concentration of a chemical required to inhibit visible microbial growth following overnight incubation. MIC values were determined using broth microdilution method according to the Clinical and Laboratory Standards Institute guidelines (CLSI, 2015, M07-A10). Mueller-Hinton broth was used as a culture medium in all the experiments. Exponentially growing bacterial cells were prepared in Mueller-Hinton broth at a concentration of approximately 5×10^5 CFU/mL. Two-fold serial dilutions of the test compound (8 concentrations ranged between 100-0.78 μg/mL) were tested. […] In each experiment, solvent (DMSO) was used as a negative control, un-treated control (composing of bacteria in Mueller-Hinton broth) was used as a growth control, blank (culture media alone) was used as sterility control. The 96-well microplate with the test compounds was incubated overnight at 37° C. Turbidity in wells indicated bacterial growth.
(§2) The compounds were tested on six MDR Gram-positive bacteria including three clinical isolates of methicillin-resistant Staphylococcus aureus (MRSA-1, MRSA-2 and MRSA-3) and three reference MRSA strains (ATCC33591, ATCC33592 and ATCC700699). They were also tested on three MDR Gram-negative bacteria including New Delhi metallo-beta-lactamase (NDM-1) positive, carbapenem-resistant E. coli (ATCC BAA2469), extended-spectrum beta-lactamase (ESBL) producing, colistin-resistant E. coli (CDC-AR-0346) and carbapenem-resistant Acinetobacter baumannii (ATCC BAA1605), in addition to two non-MDR bacteria from the same species, namely E. coli (ATCC 25922) Acinetobacter baumannii (ATCC 19606).

[1] = system: E. coli ATCC BAA2469 (NDM-1 carbapenem-resistant); assay: MIC broth microdilution, E. coli ATCC BAA2469; format: cell-based, Escherichia coli; settings: overnight incubation; for MIC: Escherichia coli, ATCCBAA2469, MDR; for MIC E. coli ATCC BAA2469 (NDM-1 carbapenem-resistant): MDR
Procedure: as §1, §2

[2] = system: E. coli CDC-AR-0346 (ESBL, colistin resistant); assay: MIC broth microdilution, E. coli CDC-AR-0346; format: cell-based, Escherichia coli; settings: MDR, overnight incubation; for MIC: Escherichia coli
Procedure: as §1, §2

[3] = system: Acinetobacter baumannii ATCC 19606; assay: MIC broth microdilution, A. baumannii ATCC 19606; format: cell-based; settings: not MDR, overnight incubation; for MIC: Acinetobacter baumannii, ATCC19606
Procedure: as §1, §2

[4] = system: Acinetobacter baumannii ATCC BAA1605 (carbapenem-resistant); assay: MIC broth microdilution, A. baumannii ATCC BAA1605; format: cell-based; settings: overnight incubation; for MIC: Acinetobacter baumannii, ATCCBAA1605, MDR; for MIC Acinetobacter baumannii ATCC BAA1605 (carbapenem-resistant): MDR
Procedure: as §1, §2

HCT-116 = assay: MTT cell viability, HCT-116; format: cell-based; settings: Homo sapiens, colon cancer, 48 h of drug treatment, average of three experiments
From the text: (§3) Cell culture: In this study five different cancer cell lines were used, human lung carcinoma (A549), human breast adenoma (MCF-7), Cervical carcinoma (Hela), hepatocellular carcinoma (Hep3B), and colorectal adenocarcinoma (HCT-116). These cells were obtained from the European Collection of Cell Cultures (ECACC, UK). Hep3B cells were maintained in Dulbecco's Modified Eagle Medium (DMEM: Sigma-Aldrich), and the four other cell lines were maintained in Roswell Park Memorial Institute medium (RPMI, Sigma-Aldrich, St. Louis, Mo., USA), which was supplemented with 10% fetal bovine serum (FBS, Sigma-Aldrich) and 1% penicillin/streptomycin (Sigma-Aldrich). Cells were incubated all the time at 37° C. in a humidified atmosphere of 5% CO2. Cell viability studies: Cell viability was assessed using the MTT assay as described before. In brief, all cancer cell lines were seeded at a density of 4×10^4/well in 96 well flat-bottom plates. After 24 h from seeding, cells were treated with the synthesized compounds and left for an incubation period of 48 h. Upon reaching the indicated time point, the media was removed and replaced with 200 μL fresh media containing 0.5 mg/mL of MTT tetrazolium dye (Sigma-Aldrich). Cells were then incubated with MTT solution for 2 h at 37° C. The resultant formazan crystals were dissolved in 200 μl/well of DMSO and absorbance was measured at 570 nm using a microplate reader (Thermo Scientific).

HELA = assay: MTT cell viability, HELA; format: cell-based; settings: Homo sapiens, cervical cancer, 48 h of drug treatment, average of three experiments
From the text: as §3

A549 = assay: MTT cell viability, A549; format: cell-based; settings: Homo sapiens, lung cancer, 48 h of drug treatment, average of three experiments
From the text: as §3

HEP3B = assay: MTT cell viability, HEP3B; format: cell-based; settings: Homo sapiens, liver cancer, 48 h of drug treatment, average of three experiments
From the text: as §3

MCF-7 = assay: MTT cell viability, MCF-7; format: cell-based; settings: Homo sapiens, MCF7; breast cancer; 48 h of drug treatment; average of three experiments
From the text: as §3

[5] = system: MRSA-1 (clinical isolate); assay: MIC broth microdilution, MRSA-1; format: cell-based, Staphylococcus aureus; settings: for MIC: Staphylococcus aureus, MRSA, read-out: MIC MRSA-1 (clinical isolate)
Procedure: as §1, §2

[6] = system: MRSA-2 (clinical isolate); assay: MIC broth microdilution, MRSA-2; format: cell-based, Staphylococcus aureus; settings: for MIC: Staphylococcus aureus, MRSA, read-out: MIC MRSA-2 (clinical isolate)
Procedure: as §1, §2

[7] = system: MRSA-3 (clinical isolate); assay: MIC broth microdilution, MRSA-3; format: cell-based, Staphylococcus aureus; settings: for MIC: Staphylococcus aureus, MRSA, read-out: MIC MRSA-3 (clinical isolate)
Procedure: as §1, §2

MRSA-ATCC33591 = assay: MIC broth microdilution, MRSA ATCC33591; format: cell-based, Staphylococcus aureus; settings: for MIC: Staphylococcus aureus, read-out: MIC MRSA-ATCC33591
Procedure: as §1, §2

MRSA-ATCC33592 = assay: MIC broth microdilution, MRSA ATCC33592; format: cell-based, Staphylococcus aureus; settings: for MIC: Staphylococcus aureus, read-out: MIC MRSA-ATCC33592
Procedure: as §1, §2

MRSA-ATCC700699 (VISA) = assay: MIC broth microdilution, MRSA ATCC700699 (VISA); format: cell-based, Staphylococcus aureus; settings: for MIC: Staphylococcus aureus, read-out: MIC MRSA-ATCC700699 (VISA)
Procedure: as §1, §2

[8] = system: normal epithelial cells (HMEC); assay: Cell viability, normal epithelial cells; format: cell-based; settings: Homo sapiens, 48 h of drug treatment, average of three experiments
Procedure: Cell viability studies: Cell viability was assessed using the MTT assay as described before. In brief, all cancer cell lines were seeded at a density of 4×10^4/well in 96 well flat-bottom plates. After 24 h from seeding, cells were treated with the synthesized compounds and left for an incubation period of 48 h. Upon reaching the indicated time point, the media was removed and replaced with 200 μL fresh media containing 0.5 mg/mL of MTT tetrazolium dye (Sigma-Aldrich). Cells were then incubated with MTT solution for 2 h at 37° C. The resultant formazan crystals were dissolved in 200 μl/well of DMSO and absorbance was measured at 570 nm using a microplate reader (Thermo Scientific).

[9] = overnight incubation, Mueller-Hinton broth
[10] = strain intermediately resistant to vancomycin, overnight incubation

| Compound | IC50 (HCT-116) [µM] | IC50 (HELA) [µM] | IC50 (A549) [µM] | IC50 (HEP3B) [µM] | IC50 (MCF-7) [µM] | MIC [5, 9] [mg/L] | MIC [6, 9] [mg/L] | MIC [7, 9] [mg/L] | MIC (MRSA-ATCC33591; [9]) [mg/L] | MIC (MRSA-ATCC33592; [9]) [mg/L] | MIC (MRSA-ATCC700699 (VISA); [10]) [mg/L] | other results |
| --- | --- | --- | --- | --- | --- | --- | --- | --- | --- | --- | --- | --- |
| CO/N=C(\C(=O)N[C@@H]1C(=O)N2C(C(=O)O)=C(COC(C)=O)CS[C@H]12)c1csc(N)n1 [Cefotaxime] | – | – | – | – | – | – | – | – | – | – | – | MIC (E. coli ATCC25922): 0.03 mg/L (≈ 0.0659 µM); MIC [1]: 250 mg/L (≈ 549 µM); MIC [2]: > 1000 mg/L; MIC [3]: 20 mg/L (≈ 43.9 µM); MIC [4]: ≥ 1000 mg/L; MIC Acinetobacter baumannii ATCC BAA1605 (carbapenem-resistant) [4]: 1000 mg/L (≈ 2200 µM) |
| Brc1ccc(N/N=C2\C=C[C@@]3(CC2)CC[C@@H]2NCCc4c2n3c2ccccc42)cc1 [Compound 1c] | 2.65 ± 0.05 | 5.3 ± 0.35 | 3.9 ± 0.04 | 4.21 ± 0.06 | 2.75 ± 0.06 | 3.12 (≈ 6.77 µM) | 3.12 (≈ 6.77 µM) | 3.12 (≈ 6.77 µM) | 6.25 (≈ 13.5 µM) | 6.25 (≈ 13.5 µM) | 6.25 (≈ 13.5 µM) | – |
| Oc1ccc2c(c1)c1c3n2[C@@]2(C=C/C(=N\Nc4ccc(C(F)(F)F)cc4)CC2)CC[C@@H]3NCC1 [Compound 1i] | 5.177 ± 0.02 | 4.08 ± 0.12 | 8.607 ± 0.02 | 5.132 ± 0.04 | 5.61 ± 0.08 | 1.56 (≈ 3.34 µM) | 3.12 (≈ 6.7 µM) | 3.12 (≈ 6.7 µM) | 3.12 (≈ 6.7 µM) | 3.12 (≈ 6.7 µM) | 1.56 (≈ 3.34 µM) | IC50 [8]: 12.7 ± 0.05 µM; MIC (E. coli ATCC25922): 12.5 mg/L (≈ 26.8 µM); MIC [1]: 6.25 to 12.5 mg/L (≈ 13.4 to 26.8 µM); MIC E. coli ATCC BAA2469 (NDM-1 carbapenem-resistant) [1]: 12.5 mg/L (≈ 26.8 µM); MIC [2]: 25 mg/L (≈ 53.6 µM); MIC [3]: 6.25 mg/L (≈ 13.4 µM); MIC [4]: 12.5 mg/L (≈ 26.8 µM) |
| CN[C@H](CC(C)C)C(=O)N[C@H]1C(=O)N[C@@H](CC(N)=O)C(=O)N[C@H]2C(=O)N[C@H]3C(=O)N[C@H](C(=O)N[C@H](C(=O)O)c4cc(O)cc(O)c4-c4cc3ccc4O)[C@H](O)c3ccc(c(Cl)c3)Oc3cc2cc(c3O[C@@H]2O[C@H](CO)[C@@H](O)[C@H](O)[C@H]2O[C@H]2C[C@](C)(N)[C@H](O)[C@H](C)O2)Oc2ccc(cc2Cl)[C@H]1O [Vancomycin, reference compound] | – | – | – | – | – | – | – | – | – | – | – | MIC [5]: 1 mg/L (≈ 0.69 µM); MIC [6]: 1 mg/L (≈ 0.69 µM); MIC [7]: 1 mg/L (≈ 0.69 µM); MIC (MRSA-ATCC33591): 1 mg/L (≈ 0.69 µM); MIC (MRSA-ATCC33592): 1 mg/L (≈ 0.69 µM); MIC (MRSA-ATCC700699 (VISA)): 8 mg/L (≈ 5.52 µM); MIC MRSA-ATCC700699 (VISA) (MRSA-ATCC700699 (VISA); [10]): 8 * μg/mL |
| COc1ccc2c3c4n(c2c1)[C@@]1(C=C/C(=N\Nc2ccc(C(F)(F)F)cc2)CC1)CC[C@@H]4NCC3 [Compound 1j] | 2.3 ± 0.04 | 4.601 ± 0.03 | 5.61 ± 0.12 | 2.88 ± 0.14 | 3 ± 2.4 | 1.56 (≈ 3.25 µM) | 3.12 (≈ 6.5 µM) | 3.12 (≈ 6.5 µM) | 3.12 (≈ 6.5 µM) | 3.12 (≈ 6.5 µM) | 3.12 (≈ 6.5 µM) | IC50 [8]: 10.77 ± 0.05 µM |
| COC(=O)[C@@H]1Cc2c3n(c4ccccc24)[C@@]2(C=C/C(=N\Nc4ccc(C(F)(F)F)cc4)CC2)CC[C@@H]3N1 [Compound 1m] | – | – | – | – | – | 3.12 (≈ 6.14 µM) | 3.12 (≈ 6.14 µM) | 3.12 (≈ 6.14 µM) | 6.25 (≈ 12.3 µM) | 6.25 (≈ 12.3 µM) | 6.25 (≈ 12.3 µM) | – |
| Gentamicin [reference compound] | – | – | – | – | – | – | – | – | – | – | – | MIC MRSA-1 (clinical isolate) [5, 9]: 50 mg/L; MIC MRSA-2 (clinical isolate) [6, 9]: 0.625 mg/L; MIC MRSA-3 (clinical isolate) [7, 9]: 0.625 mg/L; MIC MRSA-ATCC33591 (MRSA-ATCC33591; [9]): 2.5 mg/L; MIC MRSA-ATCC33592 (MRSA-ATCC33592; [9]): >500 mg/L; MIC MRSA-ATCC700699 (VISA) (MRSA-ATCC700699 (VISA); [10]): 500 µg/mL; MIC E. coli ATCC25922 (E. coli ATCC25922): 0.625 mg/L; MIC E. coli ATCC BAA2469 (NDM-1 carbapenem-resistant) [1]: >1000 mg/L; MIC E. coli CDC-AR-0346 (ESBL, colistin resistant) [2]: >1000 mg/L; MIC Acinetobacter baumannii ATCC 19606 [3]: 10 mg/L; MIC Acinetobacter baumannii ATCC BAA1605 (carbapenem-resistant) [4]: 125 mg/L |
